# Data: patent US20240189289A1, “INHIBITORS OF EPHB3 SIGNALING” (The Brigham and Women`s Hospital, Inc., priority 2021, published 2024)
# Entries after “also recorded” stand apart in the source; their conditions may differ.
# What was measured:
# splenic CD11b+ monocytes = test: Monocyte migration assay with astrocyte-conditioned medium; type: cell-based, mouse; settings: ACM from astrocytes pre-treated with compound
# Method: (§1) Generation of astrocyte-conditioned medium (ACM). […] After 24 h, cells were extensively washed with 1×PBS, and incubated with fresh astrocyte complete medium for 48 h. Supernatants were spun down and kept at −80° C. until tested in migration and neurotoxicity assays.
# Monocyte Migration Assay. Monocytes were purified from spleens from C57BL/6J mice using CD11b Microbeads (#130-049-601, Miltenyi) following the manufacturer's instructions. 100,000 monocytes were seeded in the upper chamber of a 24-well cell culture transwell, with a 5 μm pore size (#3421, Thermo Fisher Scientific), containing 300 μL of astrocyte-conditioned medium (as detailed earlier) in the bottom chamber. After 3 h incubation at 37° C. in 5% CO2, cells were collected from the lower chamber after shaking and accutase solution incubation (#A6964, Sigma-Aldrich) and quantified by FACS.
# EphB3 = target: T1, EphB3 (Homo sapiens, UniProt P54753); test: EphB3 radiometric kinase activity assay (33P ATP filter binding); type: biochemical; settings: FIG. 1C
# T1 sequence (P54753 34-998): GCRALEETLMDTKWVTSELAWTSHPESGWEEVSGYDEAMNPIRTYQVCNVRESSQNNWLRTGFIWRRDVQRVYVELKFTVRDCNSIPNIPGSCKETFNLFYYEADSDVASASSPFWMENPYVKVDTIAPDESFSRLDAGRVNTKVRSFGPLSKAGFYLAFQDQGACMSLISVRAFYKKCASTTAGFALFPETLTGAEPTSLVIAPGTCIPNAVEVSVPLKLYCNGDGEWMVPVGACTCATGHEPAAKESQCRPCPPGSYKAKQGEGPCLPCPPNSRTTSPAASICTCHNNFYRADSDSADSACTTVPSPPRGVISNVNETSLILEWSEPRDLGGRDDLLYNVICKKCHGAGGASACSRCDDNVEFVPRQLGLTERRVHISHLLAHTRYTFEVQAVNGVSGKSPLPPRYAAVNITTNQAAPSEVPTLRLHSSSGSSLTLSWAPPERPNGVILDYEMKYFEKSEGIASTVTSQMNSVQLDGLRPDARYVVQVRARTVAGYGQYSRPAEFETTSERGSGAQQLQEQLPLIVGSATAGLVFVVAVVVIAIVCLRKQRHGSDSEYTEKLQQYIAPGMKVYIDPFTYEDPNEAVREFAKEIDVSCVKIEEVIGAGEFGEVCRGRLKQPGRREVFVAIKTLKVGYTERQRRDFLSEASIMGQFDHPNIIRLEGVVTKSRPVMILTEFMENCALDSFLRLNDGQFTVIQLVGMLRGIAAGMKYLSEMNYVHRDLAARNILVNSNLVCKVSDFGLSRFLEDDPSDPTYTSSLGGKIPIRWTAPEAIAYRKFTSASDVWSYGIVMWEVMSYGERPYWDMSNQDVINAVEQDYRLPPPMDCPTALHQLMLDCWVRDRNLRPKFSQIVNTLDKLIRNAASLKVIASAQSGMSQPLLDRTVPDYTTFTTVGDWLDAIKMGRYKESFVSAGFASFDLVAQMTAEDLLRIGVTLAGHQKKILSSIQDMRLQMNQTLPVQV
# Method: EphB3 radiometric kinase activity assay. To study the EphB3 kinase activity, a radioactive filter binding assay using 33P ATP was performed as described at the […] International Centre for Kinase profiling. […] The mix was harvested onto P81 filter plates and counts were read on a Topcount NXT.
# astrocytes [1] = test: Mitochondrial ROS measurement (MitoSOX) in astrocytes; type: cell-based, mouse; settings: induced by stimulation with TNFα and IL-1β
# Method: Mitochondrial ROS measurement. 50,000 astrocytes were seeded per well in 96-well black plates and rested for 2 days in complete medium, followed by activation or inhibitor pretreatment for 24 h. MitoSOX red (Thermo Fisher Scientific, #M36008) was used to stain for mitochondrial ROS for 10 min following the manual and the signal was detected on Infinite M1000 PRO Microplate Reader (Tecan). The fluorescent signal was normalized to cell number estimated using CyQUANT cell proliferation assay kit (Invitrogen, #C7026) first and then compared to control group for data analysis.
# primary astrocytes = test: Seahorse Mito Stress test (oxygen consumption) in primary astrocytes; type: cell-based, mouse
# Method: Oxygen consumption. […] Mito Stress assay was then performed with Seahorse XF Cell Mito Stress Test Kit (Agilent Technologies, #103015-100) following the manufacturer's manual. […] The assay medium (DEMEM with 10 mM Glucose, 1 mM pyruvate and 2 mM glutamine) was used during the assay. The OCR rate was normalized to cell number estimated using CyQUANT cell proliferation assay kit (Invitrogen, #C7026).
# astrocytes [2] = test: Cytotoxicity (LDH release) and apoptosis (caspase-3/7) assay; type: cell-based
# Method: Cytotoxicity and apoptosis assay. Compound cytotoxicity was inferred by quantifying Lactate Deshidrogenase (LDH) release to the cells supernatants after 24 h using the CytoTox 96© Non-Radioactive Cytotoxicity Assay, (Promega #G1780) following by manufacturer's protocol. […] Briefly cells were washed with 0.5% BSA, 2 mM EDTAin 1×PBS and incubated with surface antibodies and a live/dead cell marker on ice for 30 minutes. After, cells were washed and following staining for Caspase-3/7 according the manufacturer's instructions (Invitrogen, #C10427).
# N2A neuronal cells = test: Neurotoxicity assay of astrocyte-conditioned medium (LDH release); type: cell-based, mouse; settings: ACM from astrocytes pre-treated with compound, LDH release after 24 h
# Method: as §1
# Neurotoxicity Assay. N2A neuronal cells (#CCL-131, ATCC) were plated and pre-activated with 100 ng/mL mouse IFNγ (#485-MI-100; R&D Systems) for 24 h.
# Thereafter, after extensive washing with 1×PBS, medium was replaced with ACM and after 24 h the supernatant was harvested for cytotoxicity evaluation by measuring LDH release with CytoTox 96 nonradioactive cytotoxicity assay kit (#G1780, Promega) following the manufacturer's protocol.
# Aqueous solubility = type: physicochemical; settings: aqueous solution, aqueous buffer; oxalate salt, pH 7.4; read-out: aqueous solubility of the oxalate salt
# astrocytes [3] = test: TNFα production in astrocytes (AlphaLISA, astrocyte-microglia co-cultures); type: cell-based, mouse; settings: primary astrocytes
# Method: AlphaLISA. Astrocyte-microglia co-cultures were seeded in 384 well plates pre coated with Poly-L-Lysine at a density of 10^4 cells/well. After 3 days, cells were preincubated with the corresponding compounds 30 minutes before LPS stimulation (0.5 ng/mL Invivogen #tlrl-3pelps) and supernatants were collected after 18 h of incubation. mTNFalpha kit (Perkin Elmer #AL505) was used to measure TNFα in the supernatants following the high sensitivity protocol according to manufacturer's instructions. Briefly, 2 μl of the supernatants or given standards were subsequently mixed with 5 μl of anti-TNFα acceptor beads, 30 minutes after biotinylated antibody anti-TNFα was added after 1 h SA-Donor beads were added and incubated 30 minutes. All incubations were performed at 23° C. in the dark. Fluorescence at 615 nm was then measured using an EnVision-Apha Reader (Perkin Elmer #2105-0010).
compound,measurement,setting,value
O=C(Nc1ccccc1Cl)c1cnc2ccc(C3CCNCC3)cn12 [A38],ACM chemoattractant activity,splenic CD11b+ monocytes,reduced ACM neurotoxic and chemoattractant activity
same,EphB3 tyrosine kinase activity in a cell-free assay,EphB3,inhibited EphB3 tyrosine kinase activity in a dose-dependent manner
same,mitochondrial production of ROS,astrocytes [1],decreased
same,ATP-linked respiration,primary astrocytes,decreased
same,basal mitochondrial respiration,primary astrocytes,decreased
same,maximal mitochondrial respiration,primary astrocytes,decreased
same,cytotoxicity (LDH release),astrocytes [2]; FIG. 1B,did not induce cytotoxicity
same,apoptosis (caspase-3/7 activation),astrocytes [2]; FIG. 7A,did not induce cytotoxicity or apoptosis
same,ACM neurotoxic activity,N2A neuronal cells,decrease in neurotoxicity; also recorded: reduced ACM neurotoxic
same,solubility,Aqueous solubility,> 10000 µg/mL
same,TNFα production in astrocytes,astrocytes [3],suppressed TNFα production; also recorded: highly efficient in down-modulating TNF-α production
